In BindingDB's records for doi:10.1210/endo.135.6.7988476 (Mcgill University, 1994):
Bridge positions count the residues as written; N and C are the ends. Square brackets hold non-standard residues; d marks the D form. Peptide text beside a SMILES is read from it. * marks the point of attachment. NH(1-naphthylmethyl) = c1ccc2c(CN*)cccc2c1; 2Nal = N[C@@H](Cc1ccc2ccccc2c1)C(=O)O; 1Nal = N[CH](Cc1cccc2ccccc12)C(=O)O; Thr(ol) = C[CH](O)[CH](N)CO; Abu = CC[C@H](N)C(=O)O

Tests used:
[1] = target: Somatostatin receptor type 3 (Homo sapiens, UniProt P32745)
[2] = target: Somatostatin receptor type 4 (Homo sapiens, UniProt P31391)
[3] = target: Somatostatin receptor type 1 (Homo sapiens, UniProt P30872)
[4] = target: Somatostatin receptor type 2 (Homo sapiens, UniProt P30874)
Chain of Somatostatin receptor type 2 (P30874 whole entry): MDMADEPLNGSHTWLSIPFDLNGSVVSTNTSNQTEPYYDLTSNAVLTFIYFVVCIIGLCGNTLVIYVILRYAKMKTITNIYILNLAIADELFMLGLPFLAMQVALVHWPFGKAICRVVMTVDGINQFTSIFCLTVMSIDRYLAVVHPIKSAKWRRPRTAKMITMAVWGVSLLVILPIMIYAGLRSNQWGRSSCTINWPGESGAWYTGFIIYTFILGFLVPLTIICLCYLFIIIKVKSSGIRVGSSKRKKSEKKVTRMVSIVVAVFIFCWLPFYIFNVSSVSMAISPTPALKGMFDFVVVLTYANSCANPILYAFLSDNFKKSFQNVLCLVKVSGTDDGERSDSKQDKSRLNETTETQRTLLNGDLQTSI

Chain of Somatostatin receptor type 3 (P32745 whole entry): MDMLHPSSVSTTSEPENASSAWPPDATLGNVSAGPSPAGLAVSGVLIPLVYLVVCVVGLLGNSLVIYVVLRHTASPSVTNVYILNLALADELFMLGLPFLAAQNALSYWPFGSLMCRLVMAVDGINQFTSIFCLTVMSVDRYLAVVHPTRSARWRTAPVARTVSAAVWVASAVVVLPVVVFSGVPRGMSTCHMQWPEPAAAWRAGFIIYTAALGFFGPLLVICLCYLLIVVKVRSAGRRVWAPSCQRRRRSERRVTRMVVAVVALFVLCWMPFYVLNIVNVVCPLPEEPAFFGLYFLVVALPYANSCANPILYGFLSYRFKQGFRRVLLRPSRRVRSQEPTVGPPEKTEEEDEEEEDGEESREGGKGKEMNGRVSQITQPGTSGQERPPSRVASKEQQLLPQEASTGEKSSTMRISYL
Chain of Somatostatin receptor type 4 (P31391 whole entry): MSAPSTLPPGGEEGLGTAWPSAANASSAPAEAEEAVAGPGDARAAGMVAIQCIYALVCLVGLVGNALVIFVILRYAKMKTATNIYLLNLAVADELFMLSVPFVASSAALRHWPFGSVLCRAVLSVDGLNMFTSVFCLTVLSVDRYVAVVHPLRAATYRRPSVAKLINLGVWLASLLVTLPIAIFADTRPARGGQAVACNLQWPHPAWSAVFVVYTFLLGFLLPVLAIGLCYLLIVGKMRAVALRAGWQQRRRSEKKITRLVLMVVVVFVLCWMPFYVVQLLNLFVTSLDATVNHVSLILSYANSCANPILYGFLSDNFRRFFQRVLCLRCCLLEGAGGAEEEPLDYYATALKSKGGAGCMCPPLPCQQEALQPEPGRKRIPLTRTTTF
Chain of Somatostatin receptor type 1 (P30872 whole entry): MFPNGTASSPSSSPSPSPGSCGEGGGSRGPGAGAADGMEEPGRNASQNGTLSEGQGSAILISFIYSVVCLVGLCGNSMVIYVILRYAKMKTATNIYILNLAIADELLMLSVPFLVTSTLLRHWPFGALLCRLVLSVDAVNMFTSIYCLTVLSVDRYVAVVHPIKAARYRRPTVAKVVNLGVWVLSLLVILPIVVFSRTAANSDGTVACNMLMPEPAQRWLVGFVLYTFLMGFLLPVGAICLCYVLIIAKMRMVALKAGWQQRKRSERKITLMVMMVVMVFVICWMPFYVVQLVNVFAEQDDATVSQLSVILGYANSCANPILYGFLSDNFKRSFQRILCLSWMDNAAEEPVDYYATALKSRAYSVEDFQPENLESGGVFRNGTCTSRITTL

SMILES | Ki [1] [nM] | Ki [2] [nM] | Ki [3] [nM] | Ki [4] [nM]
CC(C)[C@H](NC(=O)[C@H](CCCCN)NC(=O)[C@@H](Cc1c[nH]c2ccccc12)NC(=O)[C@H](Cc1ccc(O)cc1)NC(=O)[C@H](Cc1ccccc1)NC(=O)[C@H](N)Cc1ccccc1)C(=O)N[C@@H](Cc1ccccc1)C(=O)N[C@H](C(N)=O)[C@@H](C)O [BIM-23058] (H-[dF]FY[dW]KVFT-NH2) | 1.4 | 8.3 | 115 | 9.8
CC(C)[C@@H]1NC(=O)[C@H](CCCCN)NC(=O)[C@@H](Cc2c[nH]c3ccccc23)NC(=O)[C@H](Cc2ccc(O)cc2)NC(=O)[C@@H](NC(=O)[C@H](N)Cc2ccccc2)CSSC[C@@H](C(=O)N[C@@H](Cc2c[nH]c3ccccc23)C(N)=O)NC1=O [CAS_71306] (H-[dF]CY[dW]KVCW-NH2; disulfide 2-7) | 30.9 | 45 | 1000 | 5.4
C[C@@H](O)[C@H](NC(=O)[C@@H]1CSSC[C@H](NC(=O)[C@H](N)Cc2ccc3ccccc3c2)C(=O)N[C@@H](Cc2ccc(O)cc2)C(=O)N[C@H](Cc2c[nH]c3ccccc23)C(=O)N[C@@H](CCCCN)C(=O)N[C@@H]([C@@H](C)O)C(=O)N1)C(N)=O [D-Nal-c[Cys-Tyr-D-Trp-Lys-Thr-Cys]-Thr-NH2] | 11.5 | 58 | 41 | 0.4
CC[C@@H]1NC(=O)[C@H](CCCCN)NC(=O)[C@@H](Cc2c[nH]c3ccccc23)NC(=O)[C@H](Cc2ccc(O)cc2)NC(=O)[C@@H](NC(=O)[C@H](N)Cc2ccccc2)CSSC[C@@H](C(=O)N[C@@H](Cc2ccc3ccccc3c2)C(N)=O)NC1=O [D-Phe-Cys-Tyr-D-Trp-Lys-Abu-Cys-Nal-NH] (H-[dF]CY[dW]K[Abu]C[2Nal]-NH2; disulfide 2-7) | 0.09 | 1000 | 1000 | 0.024
CC(C)C1NC(=O)C(CCCCN)NC(=O)C(Cc2c[nH]c3ccccc23)NC(=O)C(Cc2ccc(O)cc2)NC(=O)C(NC(=O)C(N)Cc2cccc3ccccc23)CSSCC(C(=O)NC(CO)C(C)O)NC1=O (stereo not drawn) [DC23-60] (H-[1Nal]CYWKVC[Thr(ol)]; disulfide 2-7; configuration not given here) | 73 | 1000 | 70.4 | 0.26
CC(C)C[C@H](NC(=O)[C@H](C)NC(=O)[C@@H]1CCCN1C(=O)[C@H](CC(N)=O)NC(=O)[C@H](CO)NC(=O)[C@H](CC(N)=O)NC(=O)[C@H](C)NC(=O)[C@@H](N)CO)C(=O)N[C@@H](C)C(=O)N1CCC[C@H]1C(=O)N[C@@H](CCCN=C(N)N)C(=O)N[C@@H](CCC(=O)O)C(=O)N[C@@H](CCCN=C(N)N)C(=O)N[C@@H](CCCCN)C(=O)N[C@@H](C)C(=O)NCC(=O)N[C@H]1CSSC[C@@H](C(=O)O)NC(=O)[C@H](CO)NC(=O)[C@H]([C@@H](C)O)NC(=O)[C@H](Cc2ccc(O)cc2)NC(=O)[C@H]([C@@H](C)O)NC(=O)[C@H](CCCCN)NC(=O)[C@@H](Cc2c[nH]c3ccccc23)NC(=O)[C@H](Cc2ccccc2)NC(=O)[C@H](Cc2ccccc2)NC(=O)[C@H](CC(N)=O)NC(=O)[C@H](CCCCN)NC1=O [Leu8, D-Trp22, Tyr25 SST-28] (H-SANSNPALAPRERKAGCKNFF[dW]KTYTSC-OH; disulfide 17-28) | 0.16 | 0.03 | 0.41 | 0.18
NCCCCC1NC(=O)C(Cc2c[nH]c3ccccc23)NC(=O)C(Cc2ccc(O)cc2)NC(=O)C(NC(=O)C(N)Cc2ccccc2)CSSCC(C(=O)NCc2cccc3ccccc23)NC(=O)C(CO)NC1=O (stereo not drawn) [NC4-28B] (H-FCYWKSC-{NH(1-naphthylmethyl)}; disulfide 2-7; configuration not given here) | 8.9 | 195 | 37.4 | 4.4
